Test results reported in publication PMC7464159, “Triple Negative Breast Cancer and Breast Epithelial Cells Differentially Reprogram Glucose and Lipid Metabolism upon Treatment with Triterpenic Acids” (Biomolecules, 2020).
Like-named read-outs stand apart in the source and are kept apart here. Each block holds one compound with its values, some of them ahead of it.

Key:
MDA-MB-231 cells [1] = experiment: MTT cell viability assay; format: cell-based; conditions: Homo sapiens, mean ± SD, read-out: IC50 cell viability inhibition
Protocol: (§1) Cells were cultured in 96-well plates at 2 × 10^5 cells/mL (100 µL per well) and treated the following day with either BA or UA (0.5–50 µM), for 24 h, 48 h and 72 h. Vehicle solvent control cells received DMSO (0.25% v/v). Cell viability was estimated by the 3-(4,5-dimethylthiazol-2-yl)-2,5-diphenyltetrazolium bromide (MTT) assay as previously described by. After treatment incubation, 20 μL of MTT stock solution was added to each well (final concentration 0.5 mg/mL), and plates were incubated at 37 °C, for 4 h. Then, the medium was removed, and the formed formazan crystals were dissolved using a DMSO/ethanol (1:1) solution. Finally, absorbance of the formed product was measured at 570 nm using a microplate reader (MultiSkan FC, Thermo Fisher Scientific, Rochester, NY, USA). The IC50, defined as the concentration necessary to cause 50% inhibition of cell viability, was calculated using GraphPad Prism 5.0 (GraphPad Prism Software Inc., San Diego, CA, USA), by plotting the percentage of cell viability as a function of sample concentration logarithm. Three independent experiments were performed for each treatment.

MCF-10A cells [2] = experiment: MTT cell viability assay; format: cell-based; conditions: Homo sapiens, mean ± SD, read-out: IC50 cell viability inhibition
Protocol: as §1

MDA-MB-231 cells [3] = experiment: 1H NMR analysis of culture medium supernatants (exometabolome); format: cell-based, human
Protocol: (§2) MDA-MB-231 and MCF-10A cells were seeded in 10-cm-diameter Petri dishes at a density of 6 × 10^5 cells/mL (10 mL per dish) and cultured for 24 h at 37 °C. Cells were then incubated for 48 h with BA (5 and 15 µM) or UA (10 and 20 µM). Vehicle solvent control cells received DMSO (0.10% v/v). Samples were collected immediately after 48 h incubation or, to assess cellular recovery, medium was replaced with fresh growth medium (without TAs), and cells were incubated for additional 24 h before collection (48 + 24 h samples). Four independent assays were performed.
(§3) After incubation, culture medium was collected and centrifuged (1000× g, 5 min) and the supernatant stored at −80 °C until analysis. Culture medium without cells was placed under the same conditions and collected. Cell extraction was performed as described by Carrola et al.. Briefly, cells were washed four times with PBS and extracted with a mixture of methanol:chloroform:water (1:1:0.7). The resulting polar and organic phases were collected and then dried under vacuum or under a stream of nitrogen gas, respectively. All samples were stored at −80 °C and, at the time of analysis, dried polar extracts were reconstituted in 600 µL of deuterated phosphate buffer (100 mM, pH 7.4) containing 0.1 mM TSP-d4, while organic extracts were reconstituted in deuterated chloroform containing 0.03% TMS. Regarding medium samples, 540 μL were mixed with 60 μL of D2O containing 0.25% TSP-d4. Prior to analysis, 550 μL of each sample were transferred to 5 mm NMR tubes.
(§4) ^1H NMR spectra of all samples were acquired on a Bruker Avance III HD 500 NMR spectrometer (University of Aveiro, Portuguese NMR Network) operating at 500.13 MHz for ^1H observation equipped with a 5 mm TXI probe. Standard 1D spectra (Bruker pulse programs ‘noesypr1d’, with water suppression, for medium samples and aqueous extracts, and ‘zg’ for organic extracts) were recorded with a 7002.8 Hz spectral width, 32 k data points, a 2 s relaxation delay and 512 scans. Spectral processing comprised exponential multiplication with 0.3 Hz line broadening, zero filling to 64 k data points, manual phasing, baseline correction, and chemical shift calibration to the TSP or TMS signal at 0 ppm. 2D ^1H-^1H total correlation (TOCSY) spectra, ^1H-^13C heteronuclear single quantum correlation (HSQC) spectra and J-resolved spectra were also registered for selected samples to assist spectral assignment. Metabolites were identified with the support of 2D spectra and the spectral reference databases BBIOREFCODE-2-0-0 (Bruker Biospin, Rheinstetten, Germany) and HMDB [28]. Selected signals were then integrated using the AmixViewer software […] (version 3.9.14, Bruker BioSpin, Rheinstetten, Germany) and normalized by the total spectral area. The magnitude of each metabolite change was assessed through the percentage of variation (and its respective error) in exposed samples relatively to controls, and through the effect size (ES) adjusted for small sample numbers (and respective standard error). Metabolite variations with absolute ES greater than 0.8 were expressed in a heatmap, colored as a function of the percentage of variation, employing the R statistical software.

MCF-10A cells [4] = experiment: as above; format: cell-based, human
Protocol: as §2, §3, §4

MDA-MB-231 cells [5] = experiment: 1H NMR analysis of organic cell extracts (lipids); format: cell-based, human; conditions: 48 h; for levels of neutral lipids (cholesteryl esters and triglycerides): vs control; for plasmalogen lipids: high exposure concentration
Protocol: as §2, §3, §4

MCF-10A cells [6] = experiment: 1H NMR analysis of organic cell extracts (lipids); format: cell-based, human; conditions: for levels of triglycerides: vs control cells
Protocol: as §2, §3, §4

MDA-MB-231 cells [7] = experiment: Cell cycle analysis by flow cytometry; format: cell-based, human; conditions: 48 h
Protocol: (§5) MDA-MB-231 and MCF-10A cells were seeded in six-well plates at a density of 4 × 10^5 cells/mL (2 mL per well) and cultured for 24 h at 37 °C. […] Vehicle solvent control cells received DMSO (0.10% v/v). Then, cells were trypsinized, collected, washed with phosphate buffered saline (PBS) and fixed with 85% cold ethanol. At the time of analysis, cells were centrifuged at 300× g for 5 min at 4 °C and resuspended in PBS, before being treated with RNase (50 µg/mL) and propidium iodide staining solution (50 µg/mL) and incubated, in the dark, for at least 20 min at room temperature. Propidium iodide-stained cells were analyzed on a Coulter EPICS XL (Beckman Coulter, Hialeah, FL, USA) flow cytometer. The results were acquired using the SYSTEM II software (version 3.0 Beckman-Coulter ®, Brea, CA, USA). Four replicates were performed for each treatment, and for each sample at least 5000 nuclei were acquired. Analysis of cell cycle distribution was performed using the FlowJo software (Tree Star, Ashland, USA).

MCF-10A cells [8] = experiment: Cell cycle analysis by flow cytometry; format: cell-based, human; conditions: 48 h
Protocol: as §5

IC50 (MDA-MB-231 cells [1]; MDA-MB-231, 24 h): 31.3 ± 5.94 µM
IC50 (MDA-MB-231 cells [1]; MDA-MB-231, 48 h): 13.2 ± 2.3 µM
IC50 (MDA-MB-231 cells [1]; MDA-MB-231, 72 h): 8.39 ± 0.98 µM
Compound: C=C(C)[C@@H]1CC[C@]2(C(=O)O)CC[C@]3(C)[C@H](CC[C@@H]4[C@@]5(C)CC[C@H](O)C(C)(C)[C@@H]5CC[C@]43C)[C@@H]12 [BA, betulinic acid]
IC50 (MCF-10A cells [2]; 24 h): 22.4 ± 6.49 µM
IC50 (MCF-10A cells [2]; 48 h): 11 ± 1.83 µM
IC50 (MCF-10A cells [2]; 72 h): 2.38 ± 1.36 µM
consumption of leucine (MDA-MB-231 cells [3]; BA 5µM, 48h): decreased significantly
glucose consumption (MDA-MB-231 cells [3]; BA 15µM, 48h): significant increases
lactate excretion (MDA-MB-231 cells [3]; BA 15 µM, 48 h (already noticed at 5 µM)): significant increases
consumption of leucine and pyruvate (MDA-MB-231 cells [3]; BA, 48 + 24 h): consumed less
excretion of 2-oxoisovalerate, citrate and alanine (MDA-MB-231 cells [3]; BA, 48 + 24 h): excreted less
glucose consumption and lactate excretion vs untreated controls (MDA-MB-231 cells [3]; BA, 48 + 24 h): no longer differences
consumption of glucose and pyruvate (MCF-10A cells [4]; 48 h): consumed more
excretion of lactate (MCF-10A cells [4]; 48 h): excreting more
consumption of glucose, pyruvate and acetate (MCF-10A cells [4]; BA, 48 + 24 h): decreased
formate excretion (MCF-10A cells [4]; BA, 48 + 24 h): increased
consumption of several amino acids (BCAA, glutamine, phenylalanine, tyrosine) (MCF-10A cells [4]; BA, 48 h): significantly reduced
excretion of alanine and fumarate (MCF-10A cells [4]; BA, 48 h): decreased excretion
levels of neutral lipids (cholesteryl esters and triglycerides) (MDA-MB-231 cells [5]): decreased significantly
total glycerophospholipids and free cholesterol (MDA-MB-231 cells [5]; BA): increased
plasmalogen lipids (MDA-MB-231 cells [5]): decreased
levels of glycerophospholipids (including plasmalogen) (MCF-10A cells [6]; BA): decreased levels
relative amount of free cholesterol (MCF-10A cells [6]; BA): increased
levels of triglycerides (MCF-10A cells [6]): increased levels
cell population at the S phase (MDA-MB-231 cells [7]; 15 µM, vs non-exposed control): decreased cell population
cells at the G2 phase (MDA-MB-231 cells [7]; 15 µM, vs non-exposed control): significant accumulation
cells at the G0/G1 phase (MCF-10A cells [8]; 15 µM, vs control): decrease in the G0/G1 phase
cells at the G2 phase (MCF-10A cells [8]; 15 µM, vs control): cell cycle arrest at the G2 phase
cells at the S phase (MCF-10A cells [8]; 15 µM, vs control): increase in the S phase

IC50 (MDA-MB-231 cells [1]; MDA-MB-231, 24 h): 24.5 ± 4.61 µM
IC50 (MDA-MB-231 cells [1]; MDA-MB-231, 48 h): 17.2 ± 0.86 µM
IC50 (MDA-MB-231 cells [1]; MDA-MB-231, 72 h): 17.7 ± 2.81 µM
Compound: C[C@H]1[C@H](C)CC[C@]2(C(=O)O)CC[C@]3(C)C(=CC[C@@H]4[C@@]5(C)CC[C@H](O)C(C)(C)[C@@H]5CC[C@]43C)[C@H]12 [UA, ursolic acid]
IC50 (MCF-10A cells [2]; 24 h): 37.9 ± 8.93 µM
IC50 (MCF-10A cells [2]; 48 h): 18.7 ± 3.27 µM
IC50 (MCF-10A cells [2]; 72 h): 21.5 ± 4.55 µM
consumption of glucose, leucine and choline (MDA-MB-231 cells [3]; UA, 48 + 24 h): decreased consumption
excretion of lactate, 2-oxoisovalerate, citrate, alanine and glutamate (MDA-MB-231 cells [3]; UA, 48 + 24 h): decreased excretion
changes in the exometabolome (MDA-MB-231 cells [3]; UA, 48 h): no significant changes
consumption of glucose and pyruvate (MCF-10A cells [4]; 48 h): increasing the consumption
excretion of lactate (MCF-10A cells [4]; 48 h): increasing
consumption of several amino acids (MCF-10A cells [4]; UA, 48 h): decreased
levels of neutral lipids (cholesteryl esters and triglycerides) (MDA-MB-231 cells [5]): decreased levels
plasmalogen lipids (MDA-MB-231 cells [5]): decreased levels
levels of triglycerides (MCF-10A cells [6]): increases
effect on cell cycle phases (MDA-MB-231 cells [7]; 20 µM, vs untreated): no statistical differences
effect on cell cycle phases (MCF-10A cells [8]; 20 µM, vs untreated): no statistical differences
